Source: US8299056B2 (Signal Pharmaceuticals, LLC, priority 2008, dated 2012)

What follows are compounds tested against T1, Syk (Homo sapiens, UniProt P43405) (assay: Syk HTRF assay). Conditions: IC50 activity level, read-out: Activity Level.
T1 construct: purchased Carna Biosciences
Type: biochemical
How it was run: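 HTRF kinase assay in HEPES pH 7.6 buffer with MgCl2, DTT and Triton X100; start mix of 87.5 μM ATP and 80 nM biotinylated peptide, 1 h at room temperature. EDTA stop, then Eu-anti-phosphotyrosine/streptavidin-DyLight 647 detection, read as 665/615 nm emission ratio.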

| IC50 | SMILES |
| --- | --- |
| 1000 to 10000 nM | OC[C@@H](Nc1cccc2nc(Nc3ccc(C(F)(F)F)cc3)nn12)c1ccccc1 [Example 413, (S)-2-phenyl-2-(2-(4-(trifluoromethyl)phenylamino)-[1,2,4]triazolo[1,5-a]pyridin-5-ylamino)ethanol] |
| 0.005 to 250 nM | OCCNc1cc(-c2cccc3nc(Nc4ccccc4)nn23)ccn1 [Example 443, 2-(4-(2-(phenylamino)-[1,2,4]triazolo[1,5-a]pyridin-5-yl)pyridin-2-ylamino)ethanol] |
| 1000 to 10000 nM | OC(Cc1cccc2nc(Nc3ccc(F)cc3)nn12)C1CCNCC1 (centres unmarked) [Example 425, 2-(2-(4-fluorophenylamino)-[1,2,4]triazolo[1,5-a]pyridin-5-yl)-1-(piperidin-4-yl)ethanol] |
| 0.005 to 250 nM | FC(F)(F)c1ccc(Nc2nc3cccc(N[C@H]4CCCNC4)n3n2)cc1 [Example 469, (S)-N^5-(piperidin-3-yl)-N^2-(4-(trifluoromethyl)phenyl)-[1,2,4]triazolo[1,5-a]pyridin-2,5-diamine] |
| 500 to 1000 nM | Cc1noc2cc(Nc3nc4cccc(CC5CCOCC5)n4n3)ccc12 [Example 537, 3-methyl-N-(5-((tetrahydro-2H-pyran-4-yl)methyl)-[1,2,4]triazolo[1,5-a]pyridin-2-yl)benzo[d]isoxazol-6-amine] |
| 500 to 1000 nM | CC(C)Nc1cccc2nc(Nc3ccccc3)nn12 [Example 530, N^5-isopropyl-N^2-phenyl-[1,2,4]triazolo[1,5-a]pyrridine-2,5-diamine] |
| 500 to 1000 nM | NCCCCc1cccc2nc(Nc3ccccc3)nn12 [Example 505, 5-(4-aminobutyl)-N-phenyl-[1,2,4]triazolo[1,5-a]pyridin-2-amine] |
| 500 to 1000 nM | CC(=O)Nc1cccc2nc(Nc3ccccc3)nn12 [Example 527, N-(2-(phenylamino)-[1,2,4]triazolo[1,5-a]pyridin-5-yl)acetamide] |
| 1000 to 10000 nM | NC(=O)c1cc(-c2cccc3nc(Nc4ccc(F)cc4)nn23)ccn1 [Example 416, 4-(2-(4-fluorophenylamino)-[1,2,4]triazolo[1,5-a]pyridin-5-yl)picolinamide] |
| 0.005 to 250 nM | O[C@H]1CC[C@@H](Nc2cccc3nc(Nc4ccc(C(F)(F)F)cc4)nn23)CC1 [Example 453, cis-4-(2-(4-(trifluoromethyl)phenylamino)-[1,2,4]triazolo[1,5-a]pyridin-5-ylamino)cyclohexanol] |
| 0.005 to 250 nM | Cc1cccc2nc(Nc3ccc4c(c3)NC(=O)C4(C)C)nn12 [Example 564] |
| 250 to 500 nM | O[C@@H]1CCC(Nc2cccc3nc(Nc4ccc(C(F)(F)F)cc4)nn23)C1 (stereo in doubt) [Example 420, (1R,3R)-3-(2-(4-(trifluoromethyl)phenylamino)-[1,2,4]triazolo[1,5-a]pyridin-5-ylamino)cyclopentanol] |

Same assay, conditions: activity levels A-D, read-out: Activity Level (IC50 in the Syk HTRF assay)

| IC50 | SMILES |
| --- | --- |
| 1000 to 10000 nM | Cc1n[nH]c2cc(Nc3nc4cccc(CN5CCN(c6ccc7c(C)n[nH]c7c6)C(=O)C5)n4n3)ccc12 [Example 234, 1-(3-methyl-1H-indazol-6-yl)-4-((2-(3-methyl-1H-indazol-6-ylamino)-[1,2,4]triazolo[1,5-a]pyridin-5-yl)methyl)piperazin-2-one] |
| 0.005 to 250 nM | FC(F)(F)c1ccc(Nc2nc3cccc(-c4cnc5nc[nH]c5c4)n3n2)cc1 [Example 380, 5-(1H-imidazo[4,5-b]pyridin-6-yl)-N-(4-(trifluoromethyl)phenyl)-[1,2,4]triazolo[1,5-a]pyridin-2-amine] |
| 0.005 to 250 nM | NC(=O)c1ccc(Nc2nc3cccc(N[C@H]4CC[C@@H](O)CC4)n3n2)cc1F [Example 347, cis-2-fluoro-4-(5-(4-hydroxycyclohexylamino)-[1,2,4]triazolo[1,5-a]pyridin-2-ylamino)benzamide] |
| 1000 to 10000 nM | O[C@@H]1CCC[C@@H](Nc2cccc3nc(Nc4ccc(C(F)(F)F)cc4)nn23)C1 (single isomer, unassigned; enantiomer 2) [Example 224, cis-3-(2-(4-(trifluoromethyl)phenylamino)-[1,2,4]triazolo[1,5-a]pyridin-5-ylamino)cyclohexanol (enantiomer 2)] |
| 0.005 to 250 nM | CC1(C)C(=O)Nc2cc(Nc3nc4cccc(N[C@H]5CC[C@@H](O)CC5)n4n3)ccc21 [Example 202, cis-6-(5-(4-hydroxycyclohexylamino)-[1,2,4]triazolo[1,5-a]pyridin-2-ylamino)-3,3-dimethylindolin-2-one] |
| 0.005 to 250 nM | COCCOc1cc(Nc2nc3cccc(N[C@H]4CC[C@@H](O)CC4)n3n2)ccc1F [Example 210, cis-4-(2-(4-fluoro-3-(2-methoxyethoxy)phenylamino)-[1,2,4]triazolo[1,5-a]pyridin-5-ylamino)cyclohexanol] |
| 1000 to 10000 nM | O[C@H]1CC[C@@H](Nc2cccc3nc(Nc4ccccc4F)nn23)CC1 [Example 357, cis-4-(2-(2-fluorophenylamino)-[1,2,4]triazolo[1,5-a]pyridin-5-ylamino)cyclohexanol] |
| 1000 to 10000 nM | CNC(=O)c1ccc(Nc2nc3cccc(N4CCC(O)CC4)n3n2)cc1 [Example 242, 4-(5-(4-hydroxypiperidin-1-yl)-[1,2,4]triazolo[1,5-a]pyridin-2-ylamino)-N-methylbenzamide] |
| 1000 to 10000 nM | FC(F)(F)c1ccc(Nc2nc3cccc(OC4CCCNC4)n3n2)cc1 (stereo in doubt) [Example 361, (R)-5-(piperidin-3-yloxy)-N-(4-(trifluoromethyl)phenyl)-[1,2,4]triazolo[1,5-a]pyridin-2-amine] |
| 0.005 to 250 nM | OCCOc1cc(Nc2nc3cccc(N[C@H]4CC[C@@H](O)CC4)n3n2)ccn1 [Example 277, cis-4-(2-(2-(2-hydroxyethoxy)pyridin-4-ylamino)-[1,2,4]triazolo[1,5-a]pyridin-5-ylamino)cyclohexanol] |
| 0.005 to 250 nM | Nc1n[nH]c2cc(Nc3nc4cccc(N[C@H]5CC[C@@H](O)CC5)n4n3)ccc12 [Example 216, cis-4-(2-(3-amino-1H-indazol-6-ylamino)-[1,2,4]triazolo[1,5-a]pyridin-5-ylamino)cyclohexanol] |
| 1000 to 10000 nM | OCC1CCN(c2cccc3nc(Nc4ccc(C(F)(F)F)cc4)nn23)CC1 [Example 346, (1-(2-(4-(trifluoromethyl)phenylamino)-[1,2,4]triazolo[1,5-a]pyridin-5-yl)piperidin-4-yl)methanol] |
| 0.005 to 250 nM | Cn1ncc2cc(Nc3nc4cccc(N[C@H]5CC[C@@H](O)CC5)n4n3)ccc21 [Example 236, cis-4-(2-(1-methyl-1H-indazol-5-ylamino)-[1,2,4]triazolo[1,5-a]pyridin-5-ylamino)cyclohexanol] |

Same assay, conditions: read-out: Activity Level (Syk HTRF assay IC50)

| SMILES | IC50 |
| --- | --- |
| Cc1n[nH]c2cc(Nc3nc4cccc(O[C@@H]5COC[C@@H]5O)n4n3)ccc12 (racemic) [Example 165, (±)-cis-4-(2-(3-methyl-1H-indazol-6-ylamino)-[1,2,4]triazolo[1,5-a]pyridin-5-yloxy)tetrahydrofuran-3-ol] | 250 to 500 nM |
| NC(=O)c1ccc(Nc2nc3cccc(-c4ccccc4)n3n2)cc1 [Example 88] | 0.005 to 250 nM |
| Cc1n[nH]c2cc(Nc3nc4cccc(NC[C@H]5CC[C@H](O)C5)n4n3)ccc12 [Example 181, (1S,3S)-3-((2-(3-methyl-1H-indazol-6-ylamino)-[1,2,4]triazolo[1,5-a]pyridin-5-ylamino)methyl)cyclopentanol] | 0.005 to 250 nM |
| Nc1cccc(-c2cccc3nc(Nc4ccccc4)nn23)c1 [Example 87] | 0.005 to 250 nM |
| CC1(C)C(=O)Nc2cc(Nc3nc4cccc(N[C@H]5CC[C@](C)(O)CC5)n4n3)ccc21 [Example 162, trans-6-(5-(4-hydroxy-4-methylcyclohexylamino)-[1,2,4]triazolo[1,5-a]pyridin-2-ylamino)-3,3-dimethylindolin-2-one] | 0.005 to 250 nM |
| CN1C(=O)C(C)(C)c2ccc(Nc3nc4cccc(NC5CCOCC5)n4n3)cc21 [Example 151, 1,3,3-trimethyl-6-(5-(tetrahydro-2H-pyran-4-ylamino)-[1,2,4]triazolo[1,5-a]pyridin-2-ylamino)indolin-2-one] | 0.005 to 250 nM |
| CN1C(=O)C(C)(C)c2ccc(Nc3nc4cccc(N[C@H]5CC[C@H](O)CC5)n4n3)cc21 (stereo in doubt) [Example 146, trans-6-(5-(4-hydroxycyclohexylamino)-[1,2,4]triazolo[1,5-a]pyridin-2-ylamino)-1,3,3-trimethylindolin-2-one] | 0.005 to 250 nM |

Continued, values first:

| IC50 | SMILES |
| --- | --- |
| 500 to 1000 nM | CNC(=O)c1ccc(Nc2nc3cccc(-c4ccccc4F)n3n2)cc1 [compound 21, 4-(5-(2-fluorophenyl)-[1,2,4]triazolo[1,5-a]pyridin-2-ylamino)-N-methylbenzamide] |
| 0.005 to 250 nM | Cc1n[nH]c2ccc(Nc3nc4cccc(N[C@H]5CC[C@H](O)CC5)n4n3)cc12 [compound 127, trans-4-(2-(3-methyl-1H-indazol-5-ylamino)-[1,2,4]triazolo[1,5-a]pyridin-5-ylamino)cyclohexanol] |
| 0.005 to 250 nM | Cc1cc(Nc2nc3cccc(N[C@H]4CC[C@@H](O)CC4)n3n2)cnc1N1CCOCC1 [compound 105, cis-4-(2-(5-methyl-6-morpholinopyridin-3-ylamino)-[1,2,4]triazolo[1,5-a]pyridin-5-ylamino)cyclohexanol] |
| 0.005 to 250 nM | CN1C(=O)C(C)(C)c2ccc(Nc3nc4cccc(NC5CCOC5)n4n3)cc21 (stereo in doubt) [compound 123, (R)-1,3,3-trimethyl-6-(5-(tetrahydrofuran-3-ylamino)-[1,2,4]triazolo[1,5-a]pyridin-2-ylamino)indolin-2-one] |
| 1000 to 10000 nM | O[C@H]1CC[C@@H](Nc2cccc3nc(Nc4ccn5ccnc5c4)nn23)CC1 [compound 112, cis-4-(2-(imidazo[1,2-a]pyridin-7-ylamino)-[1,2,4]triazolo[1,5-a]pyridin-5-ylamino)cyclohexanol] |
| 0.005 to 250 nM | CN1CCC(NC(=O)c2ccc(Nc3nc4cccc(-c5cccc(O)c5)n4n3)cc2)CC1 [compound 34, 4-(5-(3-hydroxyphenyl)-[1,2,4]triazolo[1,5-a]pyridin-2-ylamino)-N-(1-methylpiperidin-4-yl)benzamide] |
